Data published in ChEMBL document CHEMBL1201862, “PubChem BioAssay data set” (2004).
The source made the active and inactive calls.

Assays:
[1] = molecular target: ADP-ribosylation factor GTPase-activating protein 1 (Rattus norvegicus, UniProt Q62848); assay: Fluorescence polarization-based biochemical high throughput dose response screening assay to identify inhibitors of ADP-ribosylation factor GTPase activating protein 1 (ARFGAP1).; assay type: functional
[2] = molecular target: Eukaryotic translation initiation factor 4H (Homo sapiens, UniProt Q15056); assay: human eIF4H binding inhibitors, primary screen, translation initiation inhibitor project, biochemical, uHTS, fluorescence polarization (AID 2012)
[3] = molecular target: Polyadenylate-binding protein 1 (Homo sapiens, UniProt P11940); assay: PABP poly(A) RNA binding inhibitors, primary screen, biochemical, fluorescence polarization, uHTS (AID 2014)
Chain of Polyadenylate-binding protein 1 (P11940 whole entry, the tested form may be a part): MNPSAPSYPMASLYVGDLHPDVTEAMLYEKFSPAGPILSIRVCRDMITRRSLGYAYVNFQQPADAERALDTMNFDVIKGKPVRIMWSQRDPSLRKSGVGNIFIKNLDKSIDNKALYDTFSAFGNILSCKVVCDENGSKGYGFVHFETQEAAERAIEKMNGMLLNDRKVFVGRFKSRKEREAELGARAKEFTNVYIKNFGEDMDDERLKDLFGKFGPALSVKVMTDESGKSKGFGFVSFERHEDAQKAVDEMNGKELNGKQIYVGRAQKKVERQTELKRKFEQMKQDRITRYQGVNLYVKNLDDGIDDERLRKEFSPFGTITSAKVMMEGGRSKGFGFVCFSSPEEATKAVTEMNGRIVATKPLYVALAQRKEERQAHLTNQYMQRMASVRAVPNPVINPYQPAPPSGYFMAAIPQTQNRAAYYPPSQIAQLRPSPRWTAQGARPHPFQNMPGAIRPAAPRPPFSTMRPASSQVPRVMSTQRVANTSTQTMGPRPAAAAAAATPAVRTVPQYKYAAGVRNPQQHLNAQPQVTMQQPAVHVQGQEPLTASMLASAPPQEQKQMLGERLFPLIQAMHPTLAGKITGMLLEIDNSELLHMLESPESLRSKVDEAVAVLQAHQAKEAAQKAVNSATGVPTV

[4] = molecular target: T1, Carboxy-terminal domain RNA polymerase II polypeptide A small phosphatase 1 (Homo sapiens, UniProt Q9GZU7); assay: inhibitors of CTDSP1, concentration-response testing, biochemical assay, absorbance-based, actives from ultra-high-throughput screening (AID 540297); assay type: functional
T1 sequence (Q9GZU7 whole entry): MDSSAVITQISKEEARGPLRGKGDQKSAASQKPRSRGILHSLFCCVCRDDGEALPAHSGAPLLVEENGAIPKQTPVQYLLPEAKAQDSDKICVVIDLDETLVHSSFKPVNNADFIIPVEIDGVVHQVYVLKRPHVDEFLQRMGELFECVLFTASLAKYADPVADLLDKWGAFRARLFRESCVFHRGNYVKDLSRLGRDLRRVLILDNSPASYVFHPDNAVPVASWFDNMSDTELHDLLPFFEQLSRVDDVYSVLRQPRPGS

[5] = molecular target: T2, Tyrosine-protein phosphatase non-receptor type 11 (Homo sapiens, UniProt Q06124); assay: SHP2 phosphatase inhibition, dose response, selectivity assay for STEP inhibitor project, biochemical (AID 602367); assay type: functional; details: read-out: IC50_Mean
T2 sequence (Q06124 whole entry): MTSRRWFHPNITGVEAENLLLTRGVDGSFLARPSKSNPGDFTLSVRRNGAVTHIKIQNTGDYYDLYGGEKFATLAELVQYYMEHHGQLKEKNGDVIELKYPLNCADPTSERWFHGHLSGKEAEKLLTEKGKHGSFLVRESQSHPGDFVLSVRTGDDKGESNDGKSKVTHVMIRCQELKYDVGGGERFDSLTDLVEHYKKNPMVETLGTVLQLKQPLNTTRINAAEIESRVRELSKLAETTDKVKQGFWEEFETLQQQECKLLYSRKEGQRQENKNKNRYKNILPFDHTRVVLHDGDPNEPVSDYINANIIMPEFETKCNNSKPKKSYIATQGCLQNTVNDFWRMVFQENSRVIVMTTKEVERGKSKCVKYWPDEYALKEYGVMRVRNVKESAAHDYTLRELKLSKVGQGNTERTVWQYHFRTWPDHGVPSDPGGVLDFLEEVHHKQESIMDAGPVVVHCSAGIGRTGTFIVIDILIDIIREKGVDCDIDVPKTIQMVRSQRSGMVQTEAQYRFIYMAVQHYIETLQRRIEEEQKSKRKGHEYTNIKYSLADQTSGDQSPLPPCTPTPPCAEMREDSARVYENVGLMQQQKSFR

[6] = molecular target: T3, Tyrosine-protein phosphatase non-receptor type 5 (Homo sapiens, UniProt P54829); assay: STEP phosphatase inhibitors, confirmation, biochemical, fluorescence intensity, uHTS hits (AID 602372); assay type: functional; details: read-out: IC50_Mean
T3 sequence (P54829 whole entry): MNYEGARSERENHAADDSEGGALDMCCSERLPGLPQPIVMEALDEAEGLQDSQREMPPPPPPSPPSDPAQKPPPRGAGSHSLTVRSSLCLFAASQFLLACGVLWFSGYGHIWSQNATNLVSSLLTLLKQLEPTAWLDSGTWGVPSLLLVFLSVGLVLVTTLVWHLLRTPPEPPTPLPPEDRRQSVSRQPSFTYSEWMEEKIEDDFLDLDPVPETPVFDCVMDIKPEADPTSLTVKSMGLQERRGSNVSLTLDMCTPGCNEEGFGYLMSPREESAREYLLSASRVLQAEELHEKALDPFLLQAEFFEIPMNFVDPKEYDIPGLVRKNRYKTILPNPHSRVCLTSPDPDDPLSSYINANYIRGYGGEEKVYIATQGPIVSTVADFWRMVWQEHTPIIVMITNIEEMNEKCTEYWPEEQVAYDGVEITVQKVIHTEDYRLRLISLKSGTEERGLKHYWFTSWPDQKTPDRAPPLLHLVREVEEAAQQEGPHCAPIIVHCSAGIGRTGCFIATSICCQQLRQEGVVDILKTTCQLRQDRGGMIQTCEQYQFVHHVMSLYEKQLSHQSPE

[7] = molecular target: Dual specificity protein phosphatase 3 (Homo sapiens, UniProt P51452); assay: VHR phosphatase inhibition, dose response, selectivity assay for STEP inhibitor project, biochemical (AID 602374); assay type: functional; details: read-out: IC50_Mean
Chain of Dual specificity protein phosphatase 3 (P51452 whole entry): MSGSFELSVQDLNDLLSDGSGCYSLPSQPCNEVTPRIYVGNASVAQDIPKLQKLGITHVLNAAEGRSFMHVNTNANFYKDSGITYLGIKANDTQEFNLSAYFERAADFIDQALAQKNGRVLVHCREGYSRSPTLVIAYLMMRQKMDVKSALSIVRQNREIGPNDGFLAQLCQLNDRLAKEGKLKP

[8] = molecular target: T4, Small ubiquitin-related modifier 2 (Homo sapiens, UniProt P61956); assay: SUMO2–SIM peptide binding inhibitors, dose response, selectivity assay for SUMO1 interaction inhibitor project, biochemical, fluorescence polarization, uHTS hits (AID 624385); assay type: functional; details: read-out: IC50_Mean
T4 sequence (P61956 whole entry): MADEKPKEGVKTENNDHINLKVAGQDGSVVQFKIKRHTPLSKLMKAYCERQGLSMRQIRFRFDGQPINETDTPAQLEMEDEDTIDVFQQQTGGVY

[9] = molecular target: T5, Small ubiquitin-related modifier 1 (Homo sapiens, UniProt P63165); assay: inhibitors of SUMO1 peptide binding, dose response, biochemical, fluorescence polarization, uHTS hits (AID 624382); assay type: functional; details: read-out: IC50_Mean
T5 sequence (P63165 whole entry): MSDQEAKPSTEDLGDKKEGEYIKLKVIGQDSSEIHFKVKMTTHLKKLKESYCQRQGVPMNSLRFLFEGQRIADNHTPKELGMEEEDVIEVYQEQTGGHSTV

[10] = molecular target: T4, Small ubiquitin-related modifier 2; assay: inhibitors of SUMO2 protein-protein interaction, dose response, selectivity assay for SUMO1 interaction inhibitor project, biochemical, FRET, human SUMO2, uHTS hits (AID 624384); assay type: functional; details: read-out: IC50_Mean
[11] = molecular target: T5, Small ubiquitin-related modifier 1; assay: inhibitors of SUMO1 partner interactions, dose response, biochemical, FRET (AID 624383); assay type: functional; details: read-out: IC50_Mean
[12] = molecular target: T6, Tyrosine-protein phosphatase non-receptor type 22 (Homo sapiens, UniProt Q9Y2R2); assay: PTPN22 phosphatase inhibition, dose response, selectivity assay for STEP inhibitor project, biochemical (AID 624241); assay type: functional
T6 sequence (Q9Y2R2 whole entry): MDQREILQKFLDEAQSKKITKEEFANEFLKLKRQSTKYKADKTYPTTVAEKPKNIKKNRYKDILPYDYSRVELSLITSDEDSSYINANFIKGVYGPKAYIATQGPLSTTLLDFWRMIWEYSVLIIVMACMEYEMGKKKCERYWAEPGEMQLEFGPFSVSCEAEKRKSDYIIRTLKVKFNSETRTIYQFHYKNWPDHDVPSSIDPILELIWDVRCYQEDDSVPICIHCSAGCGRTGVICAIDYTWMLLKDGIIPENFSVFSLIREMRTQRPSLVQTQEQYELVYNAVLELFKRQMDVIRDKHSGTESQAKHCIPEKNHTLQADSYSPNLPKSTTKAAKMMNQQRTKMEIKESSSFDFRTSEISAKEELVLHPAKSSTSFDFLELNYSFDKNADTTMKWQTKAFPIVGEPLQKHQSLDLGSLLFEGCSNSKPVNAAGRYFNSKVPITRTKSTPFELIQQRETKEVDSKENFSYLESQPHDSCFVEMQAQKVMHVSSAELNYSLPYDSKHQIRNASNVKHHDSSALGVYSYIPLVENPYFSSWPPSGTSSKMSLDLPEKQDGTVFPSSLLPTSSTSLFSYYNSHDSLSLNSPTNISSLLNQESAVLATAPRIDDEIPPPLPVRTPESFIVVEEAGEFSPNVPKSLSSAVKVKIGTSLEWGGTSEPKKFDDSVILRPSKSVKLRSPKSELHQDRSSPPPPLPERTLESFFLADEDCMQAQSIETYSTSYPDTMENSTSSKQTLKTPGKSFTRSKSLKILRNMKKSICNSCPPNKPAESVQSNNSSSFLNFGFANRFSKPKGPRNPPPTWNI

[13] = molecular target: T7, Sentrin-specific protease 8 (Homo sapiens, UniProt Q96LD8); assay type: functional
T7 sequence (Q96LD8 whole entry): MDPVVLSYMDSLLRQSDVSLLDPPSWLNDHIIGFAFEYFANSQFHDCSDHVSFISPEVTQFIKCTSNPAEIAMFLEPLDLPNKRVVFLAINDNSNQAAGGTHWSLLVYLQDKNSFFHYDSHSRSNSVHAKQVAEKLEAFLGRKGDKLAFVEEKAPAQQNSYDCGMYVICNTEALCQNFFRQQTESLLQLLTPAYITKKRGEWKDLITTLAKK

[14] = molecular target: T7, Sentrin-specific protease 8; assay type: functional; remark: listed apart in the source
[15] = MDA-MB-231 cell growth inhibition, dose response, cytotoxicity control for RAD54 inhibitor project, CellTiter-Glo luminescence, cherry-pick (AID 651692); assay type: functional, cell-based
[16] = molecular target: T8, DNA repair and recombination protein RAD54-like (Homo sapiens, UniProt Q92698); assay: inhibitors of human RAD54 branch migration, confirmation, biochemical, fluorescence, cherry-picked samples, dose series (AID 651657); assay type: functional
T8 sequence (Q92698 whole entry): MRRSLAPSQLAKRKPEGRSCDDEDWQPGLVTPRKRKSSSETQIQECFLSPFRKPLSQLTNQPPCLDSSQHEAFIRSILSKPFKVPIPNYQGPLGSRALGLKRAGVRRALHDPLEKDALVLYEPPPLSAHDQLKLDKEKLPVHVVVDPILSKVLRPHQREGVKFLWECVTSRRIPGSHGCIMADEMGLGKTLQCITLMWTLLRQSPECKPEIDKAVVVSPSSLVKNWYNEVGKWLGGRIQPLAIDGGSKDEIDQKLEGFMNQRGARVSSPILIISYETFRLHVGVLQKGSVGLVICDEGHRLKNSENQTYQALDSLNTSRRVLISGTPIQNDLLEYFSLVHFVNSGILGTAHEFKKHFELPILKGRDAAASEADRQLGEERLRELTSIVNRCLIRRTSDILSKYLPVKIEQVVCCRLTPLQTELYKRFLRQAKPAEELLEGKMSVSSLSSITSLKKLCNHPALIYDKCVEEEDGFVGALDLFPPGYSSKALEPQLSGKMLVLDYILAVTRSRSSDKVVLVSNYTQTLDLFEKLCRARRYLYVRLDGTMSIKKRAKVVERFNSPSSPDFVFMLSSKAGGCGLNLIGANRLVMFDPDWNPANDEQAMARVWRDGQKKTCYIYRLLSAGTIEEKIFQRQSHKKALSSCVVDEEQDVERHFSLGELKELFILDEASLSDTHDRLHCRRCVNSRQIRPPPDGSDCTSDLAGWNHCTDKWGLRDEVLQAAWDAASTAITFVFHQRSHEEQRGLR

[17] = molecular target: T9, DNA repair protein RAD52 homolog (Homo sapiens, UniProt P43351); assay type: functional, biochemical
T9 sequence (P43351 whole entry): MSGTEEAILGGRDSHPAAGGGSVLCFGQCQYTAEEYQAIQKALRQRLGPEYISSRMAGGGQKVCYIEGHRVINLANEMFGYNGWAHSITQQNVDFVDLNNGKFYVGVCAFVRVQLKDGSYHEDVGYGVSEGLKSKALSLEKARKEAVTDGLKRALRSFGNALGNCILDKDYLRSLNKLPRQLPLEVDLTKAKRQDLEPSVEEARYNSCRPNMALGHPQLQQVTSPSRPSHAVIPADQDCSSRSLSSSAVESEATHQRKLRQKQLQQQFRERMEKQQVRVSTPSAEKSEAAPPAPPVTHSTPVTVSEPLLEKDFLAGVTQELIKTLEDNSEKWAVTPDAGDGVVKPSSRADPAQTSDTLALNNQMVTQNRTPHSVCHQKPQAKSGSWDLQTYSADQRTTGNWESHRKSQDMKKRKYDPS

[18] = HEK293 cell viability, dose response, counter-screen for EBV LMP1 inhibitor project, dry powder, set 2 (AID 624374); assay type: functional
Beta-lactamase [19] = molecular target: Beta-lactamase (Salmonella choleraesuis (strain SC-B67), UniProt Q5J463); assay: Epi-absorbance-based counterscreen for selective VIM-2 inhibitors: dose response biochemical high throughput screening assay to identify inhibitors of TEM-1 serine-beta-lactamase.
Chain of Beta-lactamase (Salmonella choleraesuis (strain SC-B67), UniProt Q5J463) (Q5J463 whole entry): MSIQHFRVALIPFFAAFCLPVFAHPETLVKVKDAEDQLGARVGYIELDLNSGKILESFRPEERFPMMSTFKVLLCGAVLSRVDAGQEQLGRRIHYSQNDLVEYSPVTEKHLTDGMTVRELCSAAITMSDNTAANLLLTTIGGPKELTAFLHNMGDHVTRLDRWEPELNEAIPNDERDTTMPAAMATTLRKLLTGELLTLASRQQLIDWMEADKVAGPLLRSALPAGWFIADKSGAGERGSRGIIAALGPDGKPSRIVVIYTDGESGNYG

Beta-lactamase [20] = molecular target: T10, Beta-lactamase (Pseudomonas aeruginosa, UniProt Q79MP6); assay: IMP-1 metallo-beta-lactamase inhibitors, dose response, selectivity assay for VIM-2 inhibitor project, biochemical, epi-absorbance (AID 1920)
T10 sequence (Q79MP6 whole entry): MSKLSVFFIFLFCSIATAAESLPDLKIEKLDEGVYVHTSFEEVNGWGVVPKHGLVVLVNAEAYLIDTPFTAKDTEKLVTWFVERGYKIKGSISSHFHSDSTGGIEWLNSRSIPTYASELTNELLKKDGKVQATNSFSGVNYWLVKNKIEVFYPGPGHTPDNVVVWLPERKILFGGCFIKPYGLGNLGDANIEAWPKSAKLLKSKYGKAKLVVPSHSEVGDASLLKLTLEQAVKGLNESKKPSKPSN

Beta Lactamase [21] = molecular target: T11, Beta Lactamase (Pseudomonas aeruginosa, UniProt Q932Y6); assay: VIM-2 metallo-beta-lactamase inhibitor potency, dose response, biochemical, epi-absorbance readout, selective inhibitors (AID 1919)
T11 sequence (Q932Y6 whole entry): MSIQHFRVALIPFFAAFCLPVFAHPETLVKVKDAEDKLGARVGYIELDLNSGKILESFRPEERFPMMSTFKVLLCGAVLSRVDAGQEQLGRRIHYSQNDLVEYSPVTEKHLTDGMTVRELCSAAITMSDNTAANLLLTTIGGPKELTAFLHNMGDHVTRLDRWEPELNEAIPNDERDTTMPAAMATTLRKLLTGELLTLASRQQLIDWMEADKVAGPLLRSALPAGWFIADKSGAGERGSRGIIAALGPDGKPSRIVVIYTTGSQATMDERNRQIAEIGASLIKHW

Beta-lactamase [22] = molecular target: T10, Beta-lactamase; assay: […] counterscreen for selective VIM-2 inhibitors: dose response biochemical high throughput screening assay to identify inhibitors of IMP-1 metallo-beta-lactamase.
Beta Lactamase [23] = molecular target: T11, Beta Lactamase; assay: VIM-2 inhibitor FRET-based artefact check, dose response, artefact control for selective VIM-2 inhibitor project, biochemical, FRET readout, CCF2 substrate (AID 1926)
Genome polyprotein = Genome polyprotein (dengue virus type 2, UniProt P29990); assay: Dengue-2 NS5 methyltransferase inhibitors, primary screen, biochemical, confirmation dose response (AID 588689); assay type: functional
Chain of Genome polyprotein (P29990 2492-3391 limits assumed): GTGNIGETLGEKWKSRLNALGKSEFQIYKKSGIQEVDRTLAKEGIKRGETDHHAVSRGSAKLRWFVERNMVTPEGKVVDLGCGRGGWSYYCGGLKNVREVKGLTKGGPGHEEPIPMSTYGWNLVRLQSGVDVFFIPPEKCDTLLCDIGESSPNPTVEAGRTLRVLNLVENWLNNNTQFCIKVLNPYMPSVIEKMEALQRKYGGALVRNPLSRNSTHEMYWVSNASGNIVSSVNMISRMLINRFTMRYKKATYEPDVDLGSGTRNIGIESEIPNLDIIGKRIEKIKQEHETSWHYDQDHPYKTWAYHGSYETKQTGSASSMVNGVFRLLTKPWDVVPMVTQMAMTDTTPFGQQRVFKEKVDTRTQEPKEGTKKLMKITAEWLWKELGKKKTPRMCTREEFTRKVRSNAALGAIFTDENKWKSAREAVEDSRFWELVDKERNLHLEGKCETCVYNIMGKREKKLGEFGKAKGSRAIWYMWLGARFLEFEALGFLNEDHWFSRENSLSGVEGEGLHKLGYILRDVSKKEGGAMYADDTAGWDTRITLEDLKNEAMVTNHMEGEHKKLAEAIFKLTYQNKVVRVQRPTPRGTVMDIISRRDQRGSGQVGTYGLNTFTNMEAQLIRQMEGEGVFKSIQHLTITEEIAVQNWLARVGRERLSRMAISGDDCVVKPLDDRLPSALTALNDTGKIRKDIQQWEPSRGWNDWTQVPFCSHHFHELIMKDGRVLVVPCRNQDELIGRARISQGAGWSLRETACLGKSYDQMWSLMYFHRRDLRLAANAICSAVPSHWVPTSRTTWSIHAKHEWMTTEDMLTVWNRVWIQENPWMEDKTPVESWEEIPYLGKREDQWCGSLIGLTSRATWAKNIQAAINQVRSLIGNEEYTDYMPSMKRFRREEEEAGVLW

Chain of ADP-ribosylation factor GTPase-activating protein 1 (Q62848 whole entry): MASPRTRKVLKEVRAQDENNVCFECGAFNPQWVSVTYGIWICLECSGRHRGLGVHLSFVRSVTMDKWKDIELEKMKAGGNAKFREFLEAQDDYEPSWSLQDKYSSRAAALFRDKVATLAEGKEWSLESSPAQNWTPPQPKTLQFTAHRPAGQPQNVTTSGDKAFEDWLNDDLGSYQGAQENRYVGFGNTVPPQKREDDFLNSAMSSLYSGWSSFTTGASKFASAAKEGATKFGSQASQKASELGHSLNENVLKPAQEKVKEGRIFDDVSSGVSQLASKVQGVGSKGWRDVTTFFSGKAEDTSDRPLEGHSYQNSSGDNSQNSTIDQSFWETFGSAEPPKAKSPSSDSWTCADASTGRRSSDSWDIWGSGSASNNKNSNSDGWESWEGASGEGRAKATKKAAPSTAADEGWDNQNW

## Cc1ccc(NC(=O)NNC(=O)COc2ccc([N+](=O)[O-])cc2)cc1C
[1]
  IC50: 34.5 µM (inactive)

## O=C(Nc1cc([N+](=O)[O-])ccc1O)c1cccc(C(=O)Nc2cc([N+](=O)[O-])ccc2O)c1
[2]
  IC50: 7.71 µM (active)
[3]
  IC50: 8.96 µM (active)
[4]
  IC50: 1.03 µM (active)
[5]
  IC50: 0.456 µM (active)
[6]
  IC50: 1.98 µM (active)
[7]
  IC50: 0.509 µM (active)
[8]
  IC50: 9.33 µM (active)
[9]
  IC50: 0.751 µM (active)
[10]
  IC50: > 66 µM (inactive)
[11]
  IC50: 53.8 µM (inactive)
[12]
  IC50: 8.76 µM (active)

## O=C(c1ccccc1)[C-](C(=O)c1ccc(Cl)cc1)[n+]1ccc2ccccc2c1
[13]
  IC50: > 100 µM (inactive)
[14]
  IC50: 9.23 µM (active)

## COc1cc(C(=O)NC2CCN(C)CC2)ccc1Nc1ncc2c(n1)N(C1CCCCC1)CCC(=O)N2C
[15]
  AC50: 32.5 µM (active)
[16]
  AC50: 12 µM (active)
[17]
  AC50: 5.86 µM (active)

## Cc1noc(C)c1S(=O)(=O)Nc1ccc2c(c1)C(=O)N([C@H](C)CO)C[C@H](C)[C@H](CN(C)Cc1ccc(C(F)(F)F)cc1)OCCCC[C@@H](C)O2
[18]
  AbsAC35: 79.09 µM

## Oc1c(Br)cc(/C=N/n2c(S)nnc2-c2ccccc2)cc1Br
Beta-lactamase [19]
  IC50: > 59.6 µM (inactive)
Beta-lactamase [20]
  IC50: > 59.6 µM (inactive)
Beta Lactamase [21]
  IC50: 19.3 µM (inactive)
Beta-lactamase [22]
  IC50: > 19.9 µM (inactive)
Beta Lactamase [23]
  IC50: 6.1 µM (active)
Genome polyprotein
  IC50: 27.5 µM (active)
[4]
  IC50: 1.54 µM (active)
